Assay results taken from patent publication US10710978B2, “STK4 inhibitors for treatment of hematologic malignancies” (Dana-Farber Cancer Institute, Inc., priority 2015, dated 2020).
Like-named read-outs stand apart in the source and are kept apart here.

Key:
Test in all cases: KiNativ assay
Type in all cases: binding
Conditions in all cases: H929 live cell
SNRK = SNRK (Homo sapiens (Human), UniProt Q9NRH2)
Method: (§1) Biochemical IC50s of the compounds of the present disclosure against various kinases were measured in a KiNativ assay. Compounds were screened in duplicate at 10 μM in H929 live cell. IC50 was measured via Mass spectroscopy (MS).

PKCz = PKCz (Homo sapiens (Human), UniProt Q05513)
Sequence of PKCz (Q05513 whole entry): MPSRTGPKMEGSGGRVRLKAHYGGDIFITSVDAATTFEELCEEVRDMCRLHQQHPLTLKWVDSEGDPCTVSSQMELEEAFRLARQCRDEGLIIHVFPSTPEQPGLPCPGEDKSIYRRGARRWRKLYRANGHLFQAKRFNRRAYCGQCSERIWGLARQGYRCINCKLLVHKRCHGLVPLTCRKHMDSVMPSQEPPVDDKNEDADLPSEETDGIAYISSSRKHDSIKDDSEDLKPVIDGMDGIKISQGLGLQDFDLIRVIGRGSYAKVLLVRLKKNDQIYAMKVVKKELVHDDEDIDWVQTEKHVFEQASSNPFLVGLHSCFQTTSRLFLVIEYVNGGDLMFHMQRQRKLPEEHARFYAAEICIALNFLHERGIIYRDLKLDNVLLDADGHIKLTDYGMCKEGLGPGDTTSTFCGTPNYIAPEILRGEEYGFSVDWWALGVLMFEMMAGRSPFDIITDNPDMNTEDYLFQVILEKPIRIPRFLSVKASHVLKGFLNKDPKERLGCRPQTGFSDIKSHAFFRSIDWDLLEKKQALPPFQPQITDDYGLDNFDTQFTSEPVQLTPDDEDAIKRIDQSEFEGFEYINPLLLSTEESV
Method: as §1

eEF2K = eEF2K (Homo sapiens (Human), UniProt O00418)
Sequence of eEF2K (O00418 whole entry): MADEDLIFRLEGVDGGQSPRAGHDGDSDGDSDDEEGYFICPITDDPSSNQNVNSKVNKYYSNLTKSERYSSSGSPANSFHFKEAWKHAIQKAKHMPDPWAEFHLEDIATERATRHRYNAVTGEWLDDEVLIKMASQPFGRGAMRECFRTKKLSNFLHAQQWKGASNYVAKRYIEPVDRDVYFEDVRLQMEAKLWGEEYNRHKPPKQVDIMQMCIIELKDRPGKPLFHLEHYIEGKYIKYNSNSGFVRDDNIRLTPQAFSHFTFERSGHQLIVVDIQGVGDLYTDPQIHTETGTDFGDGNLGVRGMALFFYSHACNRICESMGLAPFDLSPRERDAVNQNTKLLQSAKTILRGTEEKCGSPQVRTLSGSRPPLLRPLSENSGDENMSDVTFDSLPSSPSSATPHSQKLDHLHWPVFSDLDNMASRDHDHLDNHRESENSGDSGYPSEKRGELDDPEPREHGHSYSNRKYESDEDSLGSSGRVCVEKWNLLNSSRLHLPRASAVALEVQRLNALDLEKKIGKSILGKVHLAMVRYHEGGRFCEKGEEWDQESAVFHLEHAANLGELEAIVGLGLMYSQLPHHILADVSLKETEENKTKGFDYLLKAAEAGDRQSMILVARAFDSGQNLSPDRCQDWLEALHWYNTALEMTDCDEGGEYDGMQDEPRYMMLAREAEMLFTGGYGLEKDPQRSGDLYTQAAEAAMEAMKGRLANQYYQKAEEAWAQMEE
Method: as §1

MPSK1 = MPSK1 (Homo sapiens (Human), UniProt O75716)
Method: as §1

AurA, AurB, AurC = tested on: AurA, AurB, AurC
Method: as §1

CK1g3 = CK1g3 (Homo sapiens (Human), UniProt Q9Y6M4)
Sequence of CK1g3 (Q9Y6M4 whole entry): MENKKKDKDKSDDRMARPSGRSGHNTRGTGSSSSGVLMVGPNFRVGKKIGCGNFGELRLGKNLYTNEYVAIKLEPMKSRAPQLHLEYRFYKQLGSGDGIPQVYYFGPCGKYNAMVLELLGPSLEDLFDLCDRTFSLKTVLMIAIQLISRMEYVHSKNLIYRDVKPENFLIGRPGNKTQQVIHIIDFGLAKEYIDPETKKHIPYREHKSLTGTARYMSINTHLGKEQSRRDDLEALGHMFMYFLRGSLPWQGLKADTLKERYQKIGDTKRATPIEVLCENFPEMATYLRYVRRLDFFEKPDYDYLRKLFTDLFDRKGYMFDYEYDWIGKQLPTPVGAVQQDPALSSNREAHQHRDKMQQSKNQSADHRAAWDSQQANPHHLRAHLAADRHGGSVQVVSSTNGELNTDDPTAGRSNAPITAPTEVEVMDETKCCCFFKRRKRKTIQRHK
Method: as §1

EphB2 = EphB2 (Homo sapiens (Human), UniProt P29323)
Method: as §1

CHK1 = CHK1 (Homo sapiens (Human), UniProt O14757)
Method: as §1

BRAF = BRAF (Homo sapiens (Human), UniProt P15056)
Method: as §1

RSK1 domain2 = RSK1 domain2 (Homo sapiens (Human), UniProt Q15418)
Sequence of RSK1 domain2 (Q15418 whole entry, the tested form may be a part): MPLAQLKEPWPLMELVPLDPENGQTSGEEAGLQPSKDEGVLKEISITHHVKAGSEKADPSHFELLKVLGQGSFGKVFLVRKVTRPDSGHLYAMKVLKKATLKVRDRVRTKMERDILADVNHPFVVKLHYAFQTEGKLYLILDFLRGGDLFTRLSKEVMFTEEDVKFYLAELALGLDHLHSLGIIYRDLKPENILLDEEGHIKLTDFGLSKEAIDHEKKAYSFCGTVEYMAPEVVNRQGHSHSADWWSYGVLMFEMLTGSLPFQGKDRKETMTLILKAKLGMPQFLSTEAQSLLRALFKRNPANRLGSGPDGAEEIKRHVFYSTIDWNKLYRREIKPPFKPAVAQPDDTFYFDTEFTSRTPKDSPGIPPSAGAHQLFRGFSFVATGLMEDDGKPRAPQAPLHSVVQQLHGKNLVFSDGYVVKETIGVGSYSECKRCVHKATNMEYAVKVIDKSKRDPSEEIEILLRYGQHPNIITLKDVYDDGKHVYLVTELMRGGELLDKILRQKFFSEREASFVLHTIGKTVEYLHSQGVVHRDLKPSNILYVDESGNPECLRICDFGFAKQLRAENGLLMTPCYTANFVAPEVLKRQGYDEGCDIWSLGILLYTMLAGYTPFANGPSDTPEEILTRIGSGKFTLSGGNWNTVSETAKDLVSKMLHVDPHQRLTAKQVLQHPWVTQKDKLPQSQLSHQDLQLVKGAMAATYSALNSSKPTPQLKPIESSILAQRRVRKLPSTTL
Method: as §1

LOK = LOK (Homo sapiens (Human), UniProt O94804)
Method: as §1

NEK3 = NEK3 (Homo sapiens (Human), UniProt P51956)
Method: as §1

LYN = LYN (Homo sapiens (Human), UniProt P07948)
Method: as §1

IKKa = IKKa (Homo sapiens (Human), UniProt O15111)
Method: as §1

PKR = PKR (Homo sapiens (Human), UniProt P19525)
Method: as §1

BARK1 = BARK1 (Homo sapiens (Human), UniProt P25098)
Method: as §1

MAPKAPK2, MAPKAPK3 = tested on: MAPKAPK2, MAPKAPK3
Method: as §1

TBK1 = TBK1 (Homo sapiens (Human), UniProt Q9UHD2)
Method: as §1

PIP4K2A = PIP4K2A (Homo sapiens (Human), UniProt P48426)
Method: as §1

SGK3 = SGK3 (Homo sapiens (Human), UniProt Q96BR1)
Method: as §1

FER = FER (Homo sapiens (Human), UniProt P16591)
Sequence of FER (P16591 whole entry): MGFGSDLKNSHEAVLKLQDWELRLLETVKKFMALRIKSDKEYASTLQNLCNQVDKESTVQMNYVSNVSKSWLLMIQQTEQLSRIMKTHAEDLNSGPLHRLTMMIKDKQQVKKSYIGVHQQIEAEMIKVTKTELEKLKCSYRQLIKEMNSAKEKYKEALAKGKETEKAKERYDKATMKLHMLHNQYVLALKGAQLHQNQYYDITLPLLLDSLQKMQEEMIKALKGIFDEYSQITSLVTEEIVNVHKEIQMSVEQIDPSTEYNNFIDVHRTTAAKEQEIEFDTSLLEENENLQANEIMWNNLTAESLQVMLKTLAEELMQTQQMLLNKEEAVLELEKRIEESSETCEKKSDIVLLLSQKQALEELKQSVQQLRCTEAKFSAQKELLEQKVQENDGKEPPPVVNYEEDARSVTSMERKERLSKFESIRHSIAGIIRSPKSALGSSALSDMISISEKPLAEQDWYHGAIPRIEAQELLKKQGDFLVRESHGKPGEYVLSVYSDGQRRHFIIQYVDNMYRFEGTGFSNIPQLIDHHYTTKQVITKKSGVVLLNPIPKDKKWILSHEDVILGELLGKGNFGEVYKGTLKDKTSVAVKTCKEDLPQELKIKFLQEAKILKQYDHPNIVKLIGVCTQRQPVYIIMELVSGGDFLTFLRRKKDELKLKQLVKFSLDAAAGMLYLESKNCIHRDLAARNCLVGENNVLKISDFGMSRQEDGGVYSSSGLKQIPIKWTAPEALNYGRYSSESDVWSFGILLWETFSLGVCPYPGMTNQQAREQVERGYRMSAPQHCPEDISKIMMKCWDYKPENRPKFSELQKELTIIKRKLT
Method: as §1

CDC2 = CDC2 (Homo sapiens (Human), UniProt P06493)
Method: as §1

GCN2 domain2 = GCN2 domain2 (Homo sapiens (Human), UniProt Q9P2K8)
Method: as §1

FRAP = FRAP (Homo sapiens (Human), UniProt P42345)
Method: as §1

MASTL = MASTL (Homo sapiens (Human), UniProt Q96GX5)
Method: as §1

MAP2K1 = MAP2K1 (Homo sapiens (Human), UniProt Q02750)
Sequence of MAP2K1 (Q02750 whole entry): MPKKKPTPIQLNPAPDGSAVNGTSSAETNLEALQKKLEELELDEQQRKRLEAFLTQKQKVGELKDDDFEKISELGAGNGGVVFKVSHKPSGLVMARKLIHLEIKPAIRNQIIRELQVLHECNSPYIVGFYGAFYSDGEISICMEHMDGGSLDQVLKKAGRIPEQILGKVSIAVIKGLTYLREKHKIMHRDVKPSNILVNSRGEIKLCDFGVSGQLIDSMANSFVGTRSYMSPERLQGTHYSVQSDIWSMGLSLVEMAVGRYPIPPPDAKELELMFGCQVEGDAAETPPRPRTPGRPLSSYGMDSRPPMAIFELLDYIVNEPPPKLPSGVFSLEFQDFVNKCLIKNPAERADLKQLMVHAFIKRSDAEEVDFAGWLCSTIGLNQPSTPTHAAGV
Method: as §1

RSKL1 = RSKL1 (Homo sapiens (Human), UniProt Q96S38)
Method: as §1

MAP3K2, MAP3K3 = tested on: MAP3K2, MAP3K3
Method: as §1

PHKg2 = PHKg2 (Homo sapiens (Human), UniProt P15735)
Sequence of PHKg2 (P15735 whole entry): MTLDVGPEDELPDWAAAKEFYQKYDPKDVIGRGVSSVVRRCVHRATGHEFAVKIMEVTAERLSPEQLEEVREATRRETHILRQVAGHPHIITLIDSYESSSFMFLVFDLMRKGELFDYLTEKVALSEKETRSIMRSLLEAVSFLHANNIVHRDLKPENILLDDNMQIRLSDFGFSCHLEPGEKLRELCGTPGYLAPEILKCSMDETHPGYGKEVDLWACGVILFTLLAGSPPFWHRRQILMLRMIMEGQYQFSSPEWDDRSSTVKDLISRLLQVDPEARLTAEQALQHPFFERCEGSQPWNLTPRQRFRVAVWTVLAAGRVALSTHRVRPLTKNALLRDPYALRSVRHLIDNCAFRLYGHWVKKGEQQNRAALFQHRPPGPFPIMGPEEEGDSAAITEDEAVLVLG
Method: as §1

[1] = tested on: ZC1/HGK, ZC2/TNIK, ZC3/MINK
Method: as §1

PKD3 = PKD3 (Homo sapiens (Human), UniProt O94806)
Sequence of PKD3 (O94806 whole entry): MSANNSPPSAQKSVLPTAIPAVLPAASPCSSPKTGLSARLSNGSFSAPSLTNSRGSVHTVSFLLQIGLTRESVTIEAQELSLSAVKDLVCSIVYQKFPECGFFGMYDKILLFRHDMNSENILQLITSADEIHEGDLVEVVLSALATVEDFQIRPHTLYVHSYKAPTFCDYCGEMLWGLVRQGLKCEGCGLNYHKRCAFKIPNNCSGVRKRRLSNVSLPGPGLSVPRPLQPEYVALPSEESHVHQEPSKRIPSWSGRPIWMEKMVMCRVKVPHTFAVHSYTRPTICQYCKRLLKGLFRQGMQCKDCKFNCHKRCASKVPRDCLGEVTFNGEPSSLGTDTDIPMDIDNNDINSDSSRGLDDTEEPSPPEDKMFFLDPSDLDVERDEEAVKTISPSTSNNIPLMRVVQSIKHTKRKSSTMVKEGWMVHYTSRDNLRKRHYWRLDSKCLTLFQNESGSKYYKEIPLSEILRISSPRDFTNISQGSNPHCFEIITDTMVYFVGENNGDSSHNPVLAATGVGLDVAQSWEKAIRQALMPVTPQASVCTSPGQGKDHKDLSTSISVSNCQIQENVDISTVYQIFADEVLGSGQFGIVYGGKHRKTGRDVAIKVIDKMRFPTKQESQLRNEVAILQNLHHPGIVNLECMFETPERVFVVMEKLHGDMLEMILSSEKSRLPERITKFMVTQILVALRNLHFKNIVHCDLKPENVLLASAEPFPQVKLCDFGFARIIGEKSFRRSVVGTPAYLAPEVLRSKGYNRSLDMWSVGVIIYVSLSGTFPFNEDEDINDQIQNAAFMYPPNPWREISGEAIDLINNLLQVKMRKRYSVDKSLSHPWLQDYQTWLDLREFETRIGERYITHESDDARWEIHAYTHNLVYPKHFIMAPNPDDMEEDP
Method: as §1

MARK2, MARK3 = tested on: MARK2, MARK3
Method: as §1

LATS1 = LATS1 (Homo sapiens (Human), UniProt O95835)
Method: as §1

[2] = range class, read-out: % inhibition

For `COc1cc(NS(=O)(=O)C2CC2)ccc1-c1cnc(N)c(-c2ccc3c(c2)CCNC3=O)c1` [Compound I-50, N-(4-(6-amino-5-(1-oxo-1,2,3,4-tetrahydroisoquinolin-6-yl)pyridin-3-yl)-3-methoxyphenyl) cyclopropanesulfonamide], the inhibition at 10 µM (SNRK; [2]) was 0%, the inhibition at 10 µM (SNRK; read-out: inhibition (10 μM)) was 33.2% and the inhibition at 10 µM (PKCz; [2]) was 0%. For the same compound, the inhibition at 10 µM (PKCz; read-out: inhibition (10 μM)) was -1.7%, the inhibition at 10 µM (eEF2K; [2]) was 0% and the inhibition at 10 µM (eEF2K; read-out: inhibition (10 μM)) was -1%. The inhibition at 10 µM (MPSK1; [2]) was 0%, the inhibition at 10 µM (MPSK1; read-out: inhibition (10 μM)) was 15.7% and the “% inhibition” value (AurA, AurB, AurC; 10 μM, range class) was 0.0%. For the same compound, the “inhibition (10 μM)” value (AurA, AurB, AurC) was 17.8%, the inhibition at 10 µM (CK1g3; [2]) was 75 to 90% and the inhibition at 10 µM (CK1g3; read-out: inhibition (10 μM)) was 77.1%. The inhibition at 10 µM (EphB2; [2]) was 0%, the inhibition at 10 µM (EphB2; read-out: inhibition (10 μM)) was 8.2% and the inhibition at 10 µM (CHK1; [2]) was 0%. For the same compound, the inhibition at 10 µM (CHK1; read-out: inhibition (10 μM)) was -9.6%, the inhibition at 10 µM (BRAF; [2]) was 0% and the inhibition at 10 µM (BRAF; read-out: inhibition (10 μM)) was -35.8%. The inhibition at 10 µM (RSK1 domain2; [2]) was 0%, the inhibition at 10 µM (RSK1 domain2; read-out: inhibition (10 μM)) was 1% and the inhibition at 10 µM (LOK; [2]) was over 90%. The inhibition at 10 µM (LOK; read-out: inhibition (10 μM)) was 91.6%, the inhibition at 10 µM (NEK3; [2]) was 0% and the inhibition at 10 µM (NEK3; read-out: inhibition (10 μM)) was -9.9%. It also gave an inhibition at 10 µM (LYN; [2]) of 0%, an inhibition at 10 µM (LYN; read-out: inhibition (10 μM)) of 9.7% and an inhibition at 10 µM (IKKa; [2]) of 0%. The inhibition at 10 µM (IKKa; read-out: inhibition (10 μM)) was -1.9%, the inhibition at 10 µM (PKR; [2]) was 0% and the inhibition at 10 µM (PKR; read-out: inhibition (10 μM)) was 1.8%. The inhibition at 10 µM (BARK1; [2]) was 0%, the inhibition at 10 µM (BARK1; read-out: inhibition (10 μM)) was -19.4% and the “% inhibition” value (MAPKAPK2, MAPKAPK3; 10 μM, range class) was 0.0%. For the same compound, the “inhibition (10 μM)” value (MAPKAPK2, MAPKAPK3) was −34.3%, the inhibition at 10 µM (TBK1; [2]) was 0% and the inhibition at 10 µM (TBK1; read-out: inhibition (10 μM)) was 31.4%. It also gave an inhibition at 10 µM (PIP4K2A; [2]) of 0%, an inhibition at 10 µM (PIP4K2A; read-out: inhibition (10 μM)) of -5.5% and an inhibition at 10 µM (SGK3; [2]) of 0%. It also gave an inhibition at 10 µM (SGK3; read-out: inhibition (10 μM)) of 11.2%, an inhibition at 10 µM (FER; [2]) of 0% and an inhibition at 10 µM (FER; read-out: inhibition (10 μM)) of 16.3%. The inhibition at 10 µM (CDC2; [2]) was 0%, the inhibition at 10 µM (CDC2; read-out: inhibition (10 μM)) was 13.7% and the inhibition at 10 µM (GCN2 domain2; [2]) was 0%. For the same compound, the inhibition at 10 µM (GCN2 domain2; read-out: inhibition (10 μM)) was -12.3%, the inhibition at 10 µM (FRAP; [2]) was 0% and the inhibition at 10 µM (FRAP; read-out: inhibition (10 μM)) was 21.5%. It also gave an inhibition at 10 µM (MASTL; [2]) of 0%, an inhibition at 10 µM (MASTL; read-out: inhibition (10 μM)) of -1.4% and an inhibition at 10 µM (MAP2K1; [2]) of 0%. It also gave an inhibition at 10 µM (MAP2K1; read-out: inhibition (10 μM)) of 17.8%, an inhibition at 10 µM (RSKL1; [2]) of 0% and an inhibition at 10 µM (RSKL1; read-out: inhibition (10 μM)) of 3.2%. For the same compound, the “% inhibition” value (MAP3K2, MAP3K3; 10 μM, range class) was 0.0%, the “inhibition (10 μM)” value (MAP3K2, MAP3K3) was 12.0% and the inhibition at 10 µM (PHKg2; [2]) was 0%. For the same compound, the inhibition at 10 µM (PHKg2; read-out: inhibition (10 μM)) was -38.6%, the “% inhibition” value ([1]; 10 μM, range class) was over 90% and the “inhibition (10 μM)” value [1] was 96.3%. For the same compound, the inhibition at 10 µM (PKD3; [2]) was 50 to 75%, the inhibition at 10 µM (PKD3; read-out: inhibition (10 μM)) was 69.7% and the “% inhibition” value (MARK2, MARK3; 10 μM, range class) was 0.0%. The “inhibition (10 μM)” value (MARK2, MARK3) was 0.4%, the inhibition at 10 µM (LATS1; [2]) was 0% and the inhibition at 10 µM (LATS1; read-out: inhibition (10 μM)) was 2.9%.
